The target in one assay is Cholinesterase (Homo sapiens, UniProt P06276). Kind of assay: Inhibition Assay. The text has this:
(§1) Inhibition constant using AChE or BuChE.

The next assay addresses Acetylcholinesterase (Homo sapiens, UniProt P22303). In words: Inhibition Assay.
Text: as §1

These results are taken from BindingDB's records for doi:10.1021/bi300955k (Dalhousie University, 2012).

Cholinesterase, sequence (P06276 whole entry): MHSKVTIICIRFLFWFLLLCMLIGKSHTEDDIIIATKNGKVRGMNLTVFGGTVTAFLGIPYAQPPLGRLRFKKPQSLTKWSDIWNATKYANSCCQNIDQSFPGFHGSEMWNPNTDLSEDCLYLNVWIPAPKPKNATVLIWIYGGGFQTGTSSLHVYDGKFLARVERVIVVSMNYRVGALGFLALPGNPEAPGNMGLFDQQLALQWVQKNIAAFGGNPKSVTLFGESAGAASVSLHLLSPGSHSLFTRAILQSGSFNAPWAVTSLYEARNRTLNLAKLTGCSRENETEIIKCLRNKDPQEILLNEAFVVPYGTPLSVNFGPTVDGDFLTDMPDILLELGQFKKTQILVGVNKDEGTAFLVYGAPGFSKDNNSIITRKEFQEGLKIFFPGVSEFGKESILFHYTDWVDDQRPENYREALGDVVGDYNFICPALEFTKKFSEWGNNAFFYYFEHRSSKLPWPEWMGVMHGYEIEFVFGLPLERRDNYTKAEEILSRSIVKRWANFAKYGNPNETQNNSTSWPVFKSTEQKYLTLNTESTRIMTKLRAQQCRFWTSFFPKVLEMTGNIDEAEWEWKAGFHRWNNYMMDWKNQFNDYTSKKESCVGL
Acetylcholinesterase, sequence (P22303 whole entry): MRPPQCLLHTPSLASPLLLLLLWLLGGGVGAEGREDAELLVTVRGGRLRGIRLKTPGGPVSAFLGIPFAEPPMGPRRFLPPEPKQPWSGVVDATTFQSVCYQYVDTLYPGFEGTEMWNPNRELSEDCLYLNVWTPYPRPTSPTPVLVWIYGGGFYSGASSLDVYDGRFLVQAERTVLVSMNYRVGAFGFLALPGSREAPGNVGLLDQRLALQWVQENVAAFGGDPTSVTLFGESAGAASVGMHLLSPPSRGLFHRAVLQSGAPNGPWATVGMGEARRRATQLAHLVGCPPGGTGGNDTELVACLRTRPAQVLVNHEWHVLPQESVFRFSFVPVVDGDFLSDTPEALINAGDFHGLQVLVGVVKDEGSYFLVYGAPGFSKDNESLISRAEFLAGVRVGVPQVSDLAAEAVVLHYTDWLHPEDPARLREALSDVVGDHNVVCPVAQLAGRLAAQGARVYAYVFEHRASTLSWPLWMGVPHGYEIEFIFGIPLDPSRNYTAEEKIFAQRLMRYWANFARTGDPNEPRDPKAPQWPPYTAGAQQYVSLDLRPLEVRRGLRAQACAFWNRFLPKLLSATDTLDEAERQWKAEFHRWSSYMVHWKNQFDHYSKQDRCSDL

One may read the Ki as the dissociation constant of the complex between target and ligand, obtained from inhibition or displacement. As for `CC[N+](C)(C)c1cccc(O)c1` [Edrophonium Chloride, 3], the Ki on Cholinesterase worked out at 198000 nM.
With `O=C(c1c2ccccc2cc2ccccc12)N1c2ccccc2Sc2ccccc21` [Anthracen-9-yl (10H-phenothiazine-10yl) methanone, 5], the Ki at Cholinesterase stood at 16 nM.
As for `Cc1ccc2c(c1)sc(-c1ccc(N(C)C)cc1)[n+]2C` [Thioflavin T, 1], the Ki at Acetylcholinesterase was 4990 nM; on Cholinesterase, 3620 nM.
Taken in the same sequence, the figures for `CC(C)N(CCNC(=O)N1c2ccccc2Sc2ccccc21)C(C)C` were 1640 nM and 21 nM.
